Experimental data from article PMC10836395, “Investigation of how gate residues in the main channel affect the catalytic activity of Scytalidium thermophilum catalase” (Acta Crystallographica. Section D, Structural Biology, 2024).
Read-outs that look alike come from different tables or passages of the source. Marks after values point to notes of the source that are not given here.

Key:
CATPO [1] = biological target: T1, CATPO (Scytalidium thermophilum (Humicola insolens), UniProt M4GGR5); test: Inhibition of catechol oxidation; format: biochemical; conditions: for inhibition type: catechol oxidase activity of wild-type CATPO, Lineweaver–Burk
T1 sequence (M4GGR5 entry or part of it): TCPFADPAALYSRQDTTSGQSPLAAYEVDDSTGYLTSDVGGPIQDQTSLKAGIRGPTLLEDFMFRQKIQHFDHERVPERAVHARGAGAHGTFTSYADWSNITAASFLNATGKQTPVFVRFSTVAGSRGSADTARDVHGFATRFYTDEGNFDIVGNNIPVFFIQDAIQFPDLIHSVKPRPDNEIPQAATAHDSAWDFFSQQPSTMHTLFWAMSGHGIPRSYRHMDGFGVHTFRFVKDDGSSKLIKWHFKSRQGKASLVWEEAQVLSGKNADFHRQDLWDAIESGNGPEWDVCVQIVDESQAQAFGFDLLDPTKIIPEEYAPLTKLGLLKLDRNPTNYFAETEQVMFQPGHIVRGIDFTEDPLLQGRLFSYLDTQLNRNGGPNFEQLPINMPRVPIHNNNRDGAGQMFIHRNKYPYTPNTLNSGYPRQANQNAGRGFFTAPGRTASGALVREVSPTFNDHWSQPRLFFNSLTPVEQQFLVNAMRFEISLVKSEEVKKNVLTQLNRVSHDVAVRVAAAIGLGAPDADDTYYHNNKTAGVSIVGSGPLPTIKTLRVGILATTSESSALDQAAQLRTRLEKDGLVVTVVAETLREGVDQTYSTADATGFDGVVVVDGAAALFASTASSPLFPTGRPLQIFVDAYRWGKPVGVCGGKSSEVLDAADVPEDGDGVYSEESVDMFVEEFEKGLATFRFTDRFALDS

CATPO E484D variant [2] = biological target: T2, CATPO E484D variant (Scytalidium thermophilum (Humicola insolens), UniProt M4GGR5, E503D); test: biochemical
T2 sequence (M4GGR5 entry or part of it E503D): as the sequence (M4GGR5 entry or part of it) above

CATPO E484I variant [3] = biological target: T3, CATPO E484I variant (Scytalidium thermophilum (Humicola insolens), UniProt M4GGR5, E503I); test: biochemical
T3 sequence (M4GGR5 entry or part of it E503I): as the sequence (M4GGR5 entry or part of it) above

CATPO T188D variant [4] = biological target: T4, CATPO T188D variant (Scytalidium thermophilum (Humicola insolens), UniProt M4GGR5, T207D); test: biochemical
T4 sequence (M4GGR5 entry or part of it T207D): as the sequence (M4GGR5 entry or part of it) above

CATPO E484A variant [5] = biological target: T5, CATPO E484A variant (Scytalidium thermophilum (Humicola insolens), UniProt M4GGR5, E503A); test: biochemical
T5 sequence (M4GGR5 entry or part of it E503A): as the sequence (M4GGR5 entry or part of it) above

CATPO T188A variant [6] = biological target: T6, CATPO T188A variant (Scytalidium thermophilum (Humicola insolens), UniProt M4GGR5, T207A); test: biochemical
T6 sequence (M4GGR5 entry or part of it T207A): as the sequence (M4GGR5 entry or part of it) above

CATPO T188I variant [7] = biological target: T7, CATPO T188I variant (Scytalidium thermophilum (Humicola insolens), UniProt M4GGR5, T207I); test: biochemical
T7 sequence (M4GGR5 entry or part of it T207I): as the sequence (M4GGR5 entry or part of it) above

CATPO T188F variant [8] = biological target: T8, CATPO T188F variant (Scytalidium thermophilum (Humicola insolens), UniProt M4GGR5, T207F); test: biochemical
T8 sequence (M4GGR5 entry or part of it T207F): as the sequence (M4GGR5 entry or part of it) above

CATPO T188I variant [9] = biological target: T7, CATPO T188I variant; format: biochemical; conditions: for K m: pH 7.0 (ABTS pH 5.0), 60°C
CATPO T188F variant [10] = biological target: T8, CATPO T188F variant; format: biochemical; conditions: for K m: pH 7.0 (ABTS pH 5.0), 60°C
CATPO T188D variant [11] = biological target: T4, CATPO T188D variant; format: biochemical; conditions: for K m: pH 7.0 (ABTS pH 5.0), 60°C
CATPO E484D variant [12] = biological target: T2, CATPO E484D variant; format: biochemical; conditions: for K m: pH 7.0 (ABTS pH 5.0), 60°C
CATPO E484A variant [13] = biological target: T5, CATPO E484A variant; test: Substrate-specificity analysis of the phenol oxidase activity; format: biochemical; conditions: for K m: pH 7.0 (ABTS pH 5.0), 60°C
CATPO E484I variant [14] = biological target: T3, CATPO E484I variant; format: biochemical; conditions: for K m: pH 7.0 (ABTS pH 5.0), 60°C
CATPO T188A variant [15] = biological target: T6, CATPO T188A variant; format: biochemical; conditions: for K m: pH 7.0 (ABTS pH 5.0), 60°C
CATPO [16] = biological target: T1, CATPO; test: Substrate-specificity analysis of the phenol oxidase activity; format: biochemical; conditions: for K m: pH 7.0 (ABTS pH 5.0), 60°C
[17] = catechol oxidation by CATPO, catechol 1 to 100 mM, read-out: K i

Compound | inhibition type (CATPO [1]) | Ki (CATPO [1]; [17]) [mM] | Ki (CATPO E484D variant [2]) [mM] | Ki (CATPO E484I variant [3]) [mM] | Ki (CATPO T188D variant [4]) [mM] | Ki (CATPO E484A variant [5]) [mM] | Ki (CATPO T188A variant [6]) [mM] | Ki (CATPO T188I variant [7]) [mM] | Ki (CATPO T188F variant [8]) [mM] | V max (CATPO T188I variant [9]) [mM/min] | k cat/K m (CATPO T188I variant [9]) | K m (CATPO T188I variant [9]) [mM] | V max (CATPO T188F variant [10]) [mM/min] | k cat/K m (CATPO T188F variant [10]) | K m (CATPO T188F variant [10]) [mM] | V max (CATPO T188D variant [11]) [mM/min] | k cat/K m (CATPO T188D variant [11]) | K m (CATPO T188D variant [11]) [mM] | V max (CATPO E484D variant [12]) [mM/min] | k cat/K m (CATPO E484D variant [12]) | other results
Nc1nc[nH]n1 [3TR, 3-amino-1,2,4-triazole] | competitive | 21 ± 1 | 22 ± 3.2 | 40 ± 4 | 41 ± 4.1 | 65 ± 5.5 | 20 ± 0.2 | 42 ± 4 | 54 ± 4.5 |  |  |  |  |  |  |  |  |  |  |  | 
CCn1c(=NN=c2sc3cc(S(=O)(=O)O)ccc3n2CC)sc2cc(S(=O)(=O)O)ccc21 [ABTS, 2,2′-azino-bis(3-ethylbenzthiazoline-6-sulfonic acid)] |  | 11 ± 1 |  |  |  |  |  |  |  | 6000 ± 100 | 190 ± 18 s^−1 M^−1 (×10^2) | 48 ± 0.7 | 6600 ± 120 | 270 ± 25 s^−1 M^−1 (×10^2) | 45 ± 0.5 | 4000 ± 88 | 200 ± 25 s^−1 M^−1 (×10^2) | 55 ± 1.0 | 5500 ± 132 | 100 ± 10 s^−1 M^−1 (×10^2) | K m (CATPO E484D variant [12]): 53 ± 1.0 mM; Ki (CATPO E484D variant [2]; catechol oxidation by E484D, read-out: K i): 12 ± 1.2 mM; V max (CATPO E484A variant [13]): 8600 ± 220 mM/min; k cat/K m (CATPO E484A variant [13]): 300 ± 10 s^−1 M^−1 (×10^2); K m (CATPO E484A variant [13]): 46 ± 1.0 mM; Ki (CATPO E484I variant [3]; catechol oxidation by E484I, read-out: K i): 81 ± 8 mM; Ki (CATPO T188D variant [4]; catechol oxidation by T188D, read-out: K i): 81 ± 1 mM; Ki (CATPO E484A variant [5]; catechol oxidation by E484A, read-out: K i): 96 ± 5.4 mM; Ki (CATPO T188A variant [6]; catechol oxidation by T188A, read-out: K i): 12 ± 1.2 mM; V max (CATPO E484I variant [14]): 4600 ± 98 mM/min; k cat/K m (CATPO E484I variant [14]): 170 ± 10 s^−1 M^−1 (×10^2); K m (CATPO E484I variant [14]): 50 ± 0.5 mM; V max (CATPO T188A variant [15]): 5000 ± 100 mM/min; k cat/K m (CATPO T188A variant [15]): 90 ± 5 s^−1 M^−1 (×10^2); K m (CATPO T188A variant [15]): 52 ± 0.8 mM; Ki (CATPO T188F variant [8]; catechol oxidation by T188F, read-out: K i): 84 ± 7 mM; V max (CATPO [16]): 5620 ± 250 mM/min; k cat/K m (CATPO [16]): 590 ± 20 s^−1 M^−1 (×10^2); K m (CATPO [16]): 50 ± 1.5 mM
Oc1ccccc1O [Catechol, catechol] |  |  |  |  |  |  |  |  |  | 65000 ± 1100 | 9200 ± 45 s^−1 M^−1 (×10^2) | 31 ± 0.5 | 70000 ± 1290 | 10200 ± 220 s^−1 M^−1 (×10^2) | 30 ± 1.0 | 40000 ± 4000 | 8900 ± 70 s^−1 M^−1 (×10^2) | 25 ± 1.5 | 23000 ± 1500 | 2100 ± 105 s^−1 M^−1 (×10^2) | K m (CATPO E484D variant [12]): 35 ± 0.5 mM; V max (CATPO E484A variant [13]): 88000 ± 880 mM/min; k cat/K m (CATPO E484A variant [13]): 14500 ± 130 s^−1 M^−1 (×10^2); K m (CATPO E484A variant [13]): 30 ± 1.0 mM; V max (CATPO E484I variant [14]): 50000 ± 1988 mM/min; k cat/K m (CATPO E484I variant [14]): 8800 ± 72 s^−1 M^−1 (×10^2); K m (CATPO E484I variant [14]): 30 ± 1.0 mM; V max (CATPO T188A variant [15]): 22500 ± 1000 mM/min; k cat/K m (CATPO T188A variant [15]): 2000 ± 120 s^−1 M^−1 (×10^2); K m (CATPO T188A variant [15]): 33 ± 0.5 mM; V max (CATPO [16]): 25000 ± 763 mM/min; k cat/K m (CATPO [16]): 2200 ± 130 s^−1 M^−1 (×10^2); K m (CATPO [16]): 33 ± 0.5 mM
O=C(NO)c1ccccc1O [Salicylhydroxamic acid, salicylhydroxamic acid] | competitive |  | 2 ± 0.4 | 5.4 ± 0.5 | 5.4 ± 0.4 | 6.7 ± 1.1 | 2.2 ± 0.4 | 5.4 ± 0.9 | 5.5 ± 0.7 |  |  |  |  |  |  |  |  |  |  |  | Ki (CATPO [1]): 2.2 ± 0.4 mM
